By IC50 is commonly meant the point on the concentration scale where inhibition reaches its midpoint.

The values that follow come from US8227508B2, “Dietary and pharmaceutical compositions containing carnosol and/or rosmanol and their uses” (DSM IP Assets B.V., priority 2006, dated 2012).

The test system of assay [1] is synaptic markers pCREB, pMAPK, GluR1 in hippocampal slice cultures. Put plainly: Activation of synaptic (LTP) markers in hippocampal slice cultures. The assay is classed as cell-based, Wistar rats. The following applies: hippocampal slices, 15 min treatment; for GluR1, percentage of control values: cell surface AMPA receptor 1; for pCREB, relative activation / pMAPK, relative activation: vs buffer-treated sister cultures. How it is done:
Seven-day-old Wistar rats were decapitated using a guillotine. In less than 1 minute the skull was opened, the cerebral hemispheres were separated and transferred and both hippocampi were dissected and transferred into ice-cold buffer containing 137 mM NaCl, 5 mM KCl, 0.85 mM Na2HPO4, 1.5 mM CaCl2, 0.66 mM KH2PO4, 0.28 mM MgSO4, 1 mM MgCl2, 2.7 mM NaHCO3, 1 mM Kynurenic acid and 0.6% D-glucose.
Transverse hippocampal slices (400 μm) were prepared using a vibrating blade microtome (VT1200S; Leica Microsystems (Schweiz) AG, Heerbrugg, Switzerland) in the same buffer. Hippocampal slices were individually placed on membrane inserts (Millicell Culture Plate Inserts, 0.4 μm) and cultivated at 35° C., 5% CO2, 95% humidity in a medium containing a 1:1 mixture of BME and MEM (both from Invitrogen) containing 25% heat-inactivated horse serum, 1× GlutaMAX, 1× Penicillin/Streptomycin, 0.6% glucose and 1 mM Kynurenic acid (Stoppini, Buchs and Muller (1991), J. Neurosci. Methods, 37(2), 173-82).
After 48 h in culture, synaptic NMDA receptors were activated by addition of carnosol or rosmanol for 15 min in 140 mM NaCl, 5 mM KCl, 1.3 mM CaCl2, 25 mM HEPES (pH 7.3), 33 mM D-glucose and 0.02 mM bicuculline methiodide. […] An additional positive control comprised the addition of 200 μM glycine to sister cultures. After the treatments, sections were washed and fixed for immunohistochemistry. Markers of enhanced synaptic activity, normally associated with long-term potentiation, representing an ex vivo model of learning and memory were quantitated (see Table 6, below).
Treatment of hippocampal cultures with carnosol and rosmanol induced one or more biochemical markers typical for LTP (pCREB: activated form of the cAMP response element binding protein; pMAPK: activated form of the mitogen-activated protein kinase; GluR1: cell surface presence of AMPA receptor 1).

Assay [2] has as its target T1, monoamine oxidase B (MAO-B) (Homo sapiens, UniProt P27338).
T1 sequence (P27338 1-520): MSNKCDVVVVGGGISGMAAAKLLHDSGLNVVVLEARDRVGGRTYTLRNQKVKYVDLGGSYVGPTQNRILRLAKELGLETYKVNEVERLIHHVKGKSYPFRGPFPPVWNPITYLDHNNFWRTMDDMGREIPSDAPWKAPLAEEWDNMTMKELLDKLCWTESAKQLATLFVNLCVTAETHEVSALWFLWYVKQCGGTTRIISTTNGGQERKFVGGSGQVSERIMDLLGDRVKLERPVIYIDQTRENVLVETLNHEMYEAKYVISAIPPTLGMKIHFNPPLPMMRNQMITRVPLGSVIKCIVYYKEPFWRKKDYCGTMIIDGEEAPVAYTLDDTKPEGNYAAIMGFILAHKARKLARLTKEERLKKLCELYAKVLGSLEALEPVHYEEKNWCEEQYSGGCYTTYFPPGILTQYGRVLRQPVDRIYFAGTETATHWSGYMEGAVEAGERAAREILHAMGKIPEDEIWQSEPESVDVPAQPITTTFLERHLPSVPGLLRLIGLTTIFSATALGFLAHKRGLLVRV
Briefly: Monoamine oxidase B inhibition (benzylamine substrate, HRP/vanillic acid readout). The format is biochemical. The following applies: mean ± s.e.m., n = 2. How it is done: The organic amines p-tyramine or benzylamine were used as substrates for the monoamine oxidase A (MAO-A) and B (MAO-B) enzymes respectively. The H2O2 produced by this reaction was quantified by reaction with vanillic acid, catalysed by horse radish peroxidase (HRP).
The reactions were carried out at 37° C. in polystyrene microtitre plates. The MAO enzymes (final concentration 2 U/ml) were mixed with either p-tyramine (Sigma, final concentration 0.5 mM) or benzylamine (Sigma, final concentration 0.5 mM) as appropriate and the chromogenic solution (containing vanillic acid (Fluka), 4-aminoantipyrine (Fluka) and horse radish peroxidase (Sigma), final concentrations 0.25 mM, 0.125 mM and 1 U/ml, respectively) in 0.2 M potassium phosphate buffer, pH 7.6. After 40 min incubation, plates were analysed in a microtitre plate absorbance reader, e.g. Spectramax M5 (Molecular Devices Corporation), at 495 nm.
The effects of carnosol and rosmanol on the monoamine oxidase enzymes were determined by their inclusion in the assay at a range of concentrations between 0.03 and 100 μM for 10 minutes prior to and during the incubation with substrate. To determine the effect of the compounds on the HRP-catalysed portion of the reaction, the MAO enzyme was replaced by H2O2 (Molecular Probes, final concentration 50 μM). […]

The target in assay [3] is T2, human serotonin re-uptake transporter (hSERT) (Homo sapiens, UniProt P31645).
T2 construct: host or cells: HEK-293
T2 sequence (P31645 whole entry): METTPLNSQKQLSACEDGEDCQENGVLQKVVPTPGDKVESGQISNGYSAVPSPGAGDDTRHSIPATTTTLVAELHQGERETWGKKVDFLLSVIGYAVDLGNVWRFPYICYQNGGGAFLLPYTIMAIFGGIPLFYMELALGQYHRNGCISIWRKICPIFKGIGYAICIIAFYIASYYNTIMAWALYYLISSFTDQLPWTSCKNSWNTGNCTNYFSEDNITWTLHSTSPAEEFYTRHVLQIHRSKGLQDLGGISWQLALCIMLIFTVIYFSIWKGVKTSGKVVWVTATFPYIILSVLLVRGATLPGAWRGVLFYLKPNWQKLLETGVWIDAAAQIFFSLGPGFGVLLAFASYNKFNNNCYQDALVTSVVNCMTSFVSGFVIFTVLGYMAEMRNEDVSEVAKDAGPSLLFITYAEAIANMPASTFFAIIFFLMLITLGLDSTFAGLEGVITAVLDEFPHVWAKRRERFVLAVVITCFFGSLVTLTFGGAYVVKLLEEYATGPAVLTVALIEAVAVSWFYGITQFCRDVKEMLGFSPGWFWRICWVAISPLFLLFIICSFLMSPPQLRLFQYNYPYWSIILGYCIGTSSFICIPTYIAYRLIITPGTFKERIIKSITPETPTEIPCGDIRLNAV
Put plainly: Serotonin uptake inhibition in HEK-293 cells expressing hSERT. The following applies: transfected HEK-293 cells, [3H]-serotonin 20 nM, mean ± s.e.m. (n = 2). The assay is classed as cell-based. The method, then: The cells were routinely grown in Dulbecco's Modified Eagle's Medium (Bioconcept) containing 10% dialysed foetal calf serum (Invitrogen), penicillin, streptomycin, L-glutamine and the antibiotic G418 and passaged by-trypsinisation. On the day of assay, cells from 80% confluent flasks were harvested by gentle washing with warm phosphate buffered saline (PBS). […] Serotonin uptake into the cells was determined by addition of radio-labelled [^3H]-serotonin (GE Healthcare) at a concentration of 20 nM, and incubation for 40 minutes at 37° C. with gentle shaking. At the end of this time unincorporated label was removed by filtration though Unifilter 96 GF/B plates (Perkin Elmer) using a Tomtec Mach III M cell harvester. The incorporated serotonin retained on the plates was quantified by liquid scintillation counting using Microscint-40/Topcount (Perkin Elmer).

Another assay concerns mouse. Briefly: Porsolt's Forced Swim Test (FST). The format is in vivo. How it is done: The Forced Swim Test (FST) was first reported in 1977 for screening of antidepressant-like compounds in rats (Porsolt et al 1977 Nature, 266:730-732) and, later, modified for testing mice (Porsolt et al 1977 Arch. Int. Pharmacodynamie, 229:327-336).
In two separate experiments, mice were tested following either i.p. or p.o. administration of carnosol. Mice were individually placed in a cylinder containing water (22° C.) from which they could not escape. The mice were placed in the water for 6 min and the duration of immobility during the last 4 min was measured. Ten to fifteen mice were studied per group. Carnosol was evaluated at 3, 10, 30 mg/kg body weight (i.p. 30 min before the test) or 200, 400, 600 mg/kg body weight (p.o., 24, 5 and 1 h before the test), and compared with vehicle control groups. Imipramine (32 mg/kg i.p., or p.o., respectively), administered under the same experimental conditions, was used as reference substance. Immobility and swimming time were assessed.

As for `CC(C)c1cc2c(c(O)c1O)[C@@]13CCCC(C)(C)[C@@H]1[C@H](OC3=O)[C@H]2O` [Rosmanol, rosmanol], in assay [1], the “GluR1, percentage of control values” is 320%; the “pCREB, relative activation” value was “±”; the “pMAPK, relative activation” value was “+”. The same compound showed an IC50 in assay [2] of 73.3 ± 11.3 µM. Moreover, the IC50 in assay [3] is 23.2 ± 9.7 µM.

Regarding `CC(C)c1cc2c(c(O)c1O)[C@@]13CCCC(C)(C)[C@@H]1C[C@@H]2OC3=O` [Carnosol, carnosol], in assay [1], the “GluR1, percentage of control values” was found to be 608%. Also, the “pCREB, relative activation” value in assay [1] is “±”. The “pMAPK, relative activation” value in assay [1] was “++”. Moreover, the IC50 in assay [2] stood at 107 ± 19.9 µM; in assay [3], 26.6 ± 6.9 µM. Besides, the “Duration of immobility (% change from control)” value with mouse (3 mg/kg i.p., −30 min) is recorded as −26%; in the assay on mouse (10 mg/kg i.p., −30 min), −21%; in the assay on mouse (30 mg/kg i.p., −30 min), −18%; in the assay on mouse (200 mg/kg p.o., −24, −5, −1 h) it was −9%; with mouse (400 mg/kg p.o., −24, −5, −1 h) it was −53%; in the assay on mouse (600 mg/kg p.o., −24, −5, −1 h), −3%.
